Test results taken from ChEMBL document CHEMBL5149982, “Development of Potent NEDD8-Activating Enzyme Inhibitors Bearing a Pyrimidotriazole Scaffold” (J Med Chem, 2021).

What was measured:
Jurkat = test: Antiproliferative activity against human Jurkat cells assessed as cell growth inhibition measured after 72 hrs by SRB assay; type: functional, cell-based
[1] = Toxicity in nude mouse xenografted with human HCT-116 cells assessed as effect on body weight at 60 mg/kg, sc bid administered at 5 on/5 off/8 for 18 days; type: organism-based; conditions: in vivo, 432 h, time 18 day
RKO = test: Antiproliferative activity against human RKO cells assessed as cell growth inhibition measured after 72 hrs by SRB assay; type: functional, cell-based
[2] = Observed AUCinfinity in Sprague-Dawley rat at 1 mg/kg, iv; type: ADME, organism-based; set-up: time infinity, dose 1 mg/kg, route iv; conditions: in vivo
[3] = biological target: T1, Serine/threonine-protein kinase TAO1 (Homo sapiens) (UniProt Q7L7X3); test: Inhibition of human partial length wild type TAOK1 by measuring selectivity score at 1 uM by Kinomescan method relative to control
T1 sequence (whole entry): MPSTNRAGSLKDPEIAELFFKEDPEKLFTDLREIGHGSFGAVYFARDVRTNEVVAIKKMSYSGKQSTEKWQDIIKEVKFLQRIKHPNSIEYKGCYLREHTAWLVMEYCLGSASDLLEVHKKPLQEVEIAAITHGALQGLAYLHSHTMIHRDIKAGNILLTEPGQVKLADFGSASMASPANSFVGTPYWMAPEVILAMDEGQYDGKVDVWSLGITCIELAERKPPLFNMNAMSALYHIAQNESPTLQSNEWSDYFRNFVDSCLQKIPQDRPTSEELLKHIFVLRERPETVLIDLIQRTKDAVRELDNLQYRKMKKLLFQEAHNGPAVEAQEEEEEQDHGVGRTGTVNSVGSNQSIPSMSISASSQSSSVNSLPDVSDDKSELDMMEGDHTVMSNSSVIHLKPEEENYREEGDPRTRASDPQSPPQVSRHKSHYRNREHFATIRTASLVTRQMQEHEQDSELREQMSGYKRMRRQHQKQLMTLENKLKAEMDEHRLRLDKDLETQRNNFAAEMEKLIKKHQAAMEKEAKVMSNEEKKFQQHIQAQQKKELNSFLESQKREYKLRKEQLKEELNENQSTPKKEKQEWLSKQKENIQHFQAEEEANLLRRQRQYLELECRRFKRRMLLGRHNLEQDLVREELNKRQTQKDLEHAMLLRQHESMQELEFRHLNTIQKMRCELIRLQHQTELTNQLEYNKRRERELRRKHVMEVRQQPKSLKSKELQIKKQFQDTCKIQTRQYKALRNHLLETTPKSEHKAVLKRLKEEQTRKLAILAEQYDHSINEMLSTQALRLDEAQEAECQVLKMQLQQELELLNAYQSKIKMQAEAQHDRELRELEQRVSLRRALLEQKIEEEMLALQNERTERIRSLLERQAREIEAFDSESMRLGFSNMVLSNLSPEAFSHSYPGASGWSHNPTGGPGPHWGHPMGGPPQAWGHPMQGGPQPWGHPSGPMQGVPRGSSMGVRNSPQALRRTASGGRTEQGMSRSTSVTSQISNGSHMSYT

LNCaP-Clone-FGC = test: Antiproliferative activity against human LNCaP-Clone-FGC cells assessed as cell growth inhibition measured after 72 hrs by SRB assay; type: functional, cell-based
HCT-116 [4] = test: Antiproliferative activity against human HCT-116 cells assessed as cell growth inhibition by sulforhodamine B assay; type: functional, cell-based
[5] = Volume of distribution at steady state in Sprague-Dawley rat at 1 mg/kg, iv; type: ADME, organism-based; conditions: in vivo, read-out: Vdss
[6] = biological target: Voltage-gated inwardly rectifying potassium channel KCNH2 (Homo sapiens, UniProt Q12809); test: Inhibition of hERG channel; type: toxicity
HCT-116 [7] = test: Antiproliferative activity against human HCT-116 cells assessed as cell growth inhibition measured after 72 hrs by SRB assay; type: functional, cell-based; conditions: HCT-116, 72 h
DU-145 = test: Antiproliferative activity against human DU-145 cells assessed as cell growth inhibition measured after 72 hrs by SRB assay; type: functional, cell-based; conditions: DU-145, 72 h
[8] = Observed MRTinfinity in Sprague-Dawley rat at 1 mg/kg, iv; type: ADME, organism-based; conditions: in vivo
[9] = biological target: T1, Serine/threonine-protein kinase TAO1 (Homo sapiens); test: Inhibition of human partial length wild type TAOK1 at 1 uM by Kinomescan method relative to control
MV4-11 = test: Antiproliferative activity against human MV4-11 cells assessed as cell growth inhibition measured after 72 hrs by SRB assay; type: functional, cell-based; conditions: MV4-11, 72 h
[10] = AUClast in Sprague-Dawley rat at 1 mg/kg, iv; type: ADME, organism-based; set-up: time 0 - last, dose 1 mg/kg, route iv; conditions: in vivo
HuTu80 = test: Antiproliferative activity against human HuTu80 cells assessed as cell growth inhibition measured after 72 hrs by SRB assay; type: functional, cell-based; conditions: HuTu80, 72 h
[11] = Half life in Sprague-Dawley rat at 1 mg/kg, iv; type: ADME, organism-based; conditions: in vivo
HT-29 = test: Antiproliferative activity against human HT-29 cells assessed as cell growth inhibition measured after 72 hrs by SRB assay; type: functional, cell-based; conditions: HT-29, 72 h
[12] = Clearance in Sprague-Dawley rat at 1 mg/kg, iv; type: ADME, organism-based; conditions: in vivo
HCT-116 [13] = test: Antitumor activity against human HCT-116 cells xenografted in nude mouse assessed as reduction in tumor growth at 60 mg/kg, sc bid administered at 5 on/5 off/8 for 18 days; type: functional; conditions: time 18 day
[14] = Inhibition of UAE (unknown origin) […] assessed as decrease in UbcH10-Ub adduct formation incubated for 2 hrs in presence of L-glutathione and ATP by HTRF assay; set-up: species or system Homo sapiens
THP-1 = test: Antiproliferative activity against human THP-1 cells assessed as cell growth inhibition measured after 72 hrs by SRB assay; type: functional, cell-based; conditions: THP-1, 72 h
CAPAN-1 = test: Antiproliferative activity against human CAPAN-1 cells assessed as cell growth inhibition measured after 72 hrs by SRB assay; type: functional, cell-based; conditions: CAPAN-1, 72 h

Sequence of Voltage-gated inwardly rectifying potassium channel KCNH2 (Q12809 whole entry): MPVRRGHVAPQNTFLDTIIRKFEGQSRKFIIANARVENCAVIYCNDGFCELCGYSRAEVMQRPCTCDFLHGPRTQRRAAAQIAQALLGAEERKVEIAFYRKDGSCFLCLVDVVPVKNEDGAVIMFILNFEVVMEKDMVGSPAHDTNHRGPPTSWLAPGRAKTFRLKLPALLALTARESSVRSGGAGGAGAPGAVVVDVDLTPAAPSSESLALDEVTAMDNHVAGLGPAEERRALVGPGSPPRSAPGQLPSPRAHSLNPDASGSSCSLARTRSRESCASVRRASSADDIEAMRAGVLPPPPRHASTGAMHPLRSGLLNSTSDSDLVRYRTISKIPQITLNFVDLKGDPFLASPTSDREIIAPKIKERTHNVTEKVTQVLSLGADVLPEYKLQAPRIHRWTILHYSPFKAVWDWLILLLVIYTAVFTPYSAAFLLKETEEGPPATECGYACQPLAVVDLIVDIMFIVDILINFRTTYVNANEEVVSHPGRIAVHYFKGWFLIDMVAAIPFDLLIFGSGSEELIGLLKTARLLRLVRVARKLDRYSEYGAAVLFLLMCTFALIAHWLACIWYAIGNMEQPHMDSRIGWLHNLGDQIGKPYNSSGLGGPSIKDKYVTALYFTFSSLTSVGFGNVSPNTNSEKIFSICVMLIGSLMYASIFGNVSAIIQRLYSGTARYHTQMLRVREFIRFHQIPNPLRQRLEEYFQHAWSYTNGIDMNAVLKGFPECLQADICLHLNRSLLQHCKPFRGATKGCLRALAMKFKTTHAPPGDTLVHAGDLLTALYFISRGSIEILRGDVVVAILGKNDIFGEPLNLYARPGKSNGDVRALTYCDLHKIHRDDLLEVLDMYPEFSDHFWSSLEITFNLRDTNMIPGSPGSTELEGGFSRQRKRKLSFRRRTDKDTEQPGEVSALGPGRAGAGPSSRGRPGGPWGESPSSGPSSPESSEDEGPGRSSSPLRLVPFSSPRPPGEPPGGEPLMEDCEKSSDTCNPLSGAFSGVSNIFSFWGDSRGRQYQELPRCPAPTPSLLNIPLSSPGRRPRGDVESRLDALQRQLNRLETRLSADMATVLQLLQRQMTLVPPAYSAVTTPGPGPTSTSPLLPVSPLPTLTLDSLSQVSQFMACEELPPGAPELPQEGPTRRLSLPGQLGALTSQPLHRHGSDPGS

IC50 (Jurkat): 152 nM | AUC(0-inf) [2]: 1340 ng·h/mL | Activity [3]: 0.002 | IC50 (LNCaP-Clone-FGC): 64.6 nM | IC50 (HCT-116 [4]): 33.9 nM | Vd [5]: 1.63 L/kg | IC50 (HCT-116 [7]): 36.2 nM | IC50 (DU-145): 201 nM | MRT inf [8]: 1.9 h | inhibition [9]: 35% | IC50 (MV4-11): 107 nM | AUC(0-t) [10]: 1330 ng·h/mL | half-life [11]: 1.36 h | IC50 (HT-29): 484 nM | clearance [12]: 16.5 mL/min/kg | IC50 [14]: 3.72 nM | IC50 (THP-1): 115 nM
Compound: NS(=O)(=O)OC[C@@H]1C[C@@H](n2ccc3c(N[C@H]4CCc5ccccc54)ncnc32)C[C@@H]1O [PEVONEDISTAT]
Activity [1]: Non-Toxic | IC50 (RKO): 166 nM | IC50 [6]: > 40000 nM | IC50 (HuTu80): 42.6 nM | T/C (HCT-116 [13]): 0.1 | IC50 (CAPAN-1): 101 nM
